In patent publication US20230047313A1, “TREATING HEART DISEASE IN MUSCULAR DYSTROPHY PATIENTS” (Children`s Medical Center Corporation, priority 2019, published 2023):
Entries after “also recorded” stand apart in the source; their conditions may differ.

How the values were obtained:
Format in all cases: in vivo, mouse
CIP-KO/mdx dko mice = experiment: Oral gavage of Nox4 inhibitor in CIP-KO/mdx dko mice, cardiac function by echocardiography
Source text: (§1) Nox4 inhibitor GKT 137831 was purchased from MilliporeSigma and dissolved in corn oil. Male mutation mice for both CIP and dystrophin genes (CIP-KO/mdx dko) were divided into four groups: • 1) group young control (3-month old mouse with corn oil); • 2) group young inhibitor (3-month old mouse with nox4 inhibitor); • 3) group old control (5-month old mouse with corn oil); • 4) group Old inhibitor (5-month old mouse with nox4 inhibitor) Male mutation mice for utrophin and dystrophin (c) were divided into two groups: • 1) group C: control (3-month old mouse with corn oil); • 2) group I: inhibitor (3-month old mouse with nox4 inhibitor); For all the animals in the inhibitor treatment group, the Nox4 Inhibitor (GKT137831 (SIGMA) diluted 1:100 in corn oil) was applied at the dosage of 60 mg/kg/day daily; control group was treated with corn oil only. Cardiac function was monitored using echocardiography before (pre-) and after Nox4 Inhibitor treatment at indicated times (weeks or months) and was presented as EF (ejection fraction) or FS % (fractional shortening), respectively. Utrn/mdx dko mice were sacrificed after final echocardiography measurement after 2 months. Histology was performed in the heart tissues and the expression of cardiac genes and fibronectin, a molecular marker for fibrosis, measured using real-time qPCR.

Utrn/mdx dko mice [1] = experiment: Oral gavage of Nox4 inhibitor in Utrn/mdx dko mice, cardiac function by echocardiography; settings: 60 mg/kg/day daily, 2, 4 and 8 weeks, both younger and older mice
Description: Nox4 inhibitor GKT 137831 was purchased from MilliporeSigma and dissolved in corn oil. […] Cardiac function was monitored using echocardiography before (pre-) and after Nox4 Inhibitor treatment at indicated times (weeks or months) and was presented as EF (ejection fraction) or FS % (fractional shortening), respectively. Utrn/mdx dko mice were sacrificed after final echocardiography measurement after 2 months. Histology was performed in the heart tissues and the expression of cardiac genes and fibronectin, a molecular marker for fibrosis, measured using real-time qPCR.

Utrn/mdx dko mice [2] = experiment: Histology (Fast green/Sirius red staining) of heart sections of Utrn/mdx dko mice after Nox4 inhibitor treatment; settings: 8 weeks after treatment, 60 mg/kg/day
Source text: as §1, with “Male” for “Nox4 inhibitor GKT 137831 was purchased from MilliporeSigma and dissolved in corn oil. Male”

Utrn/mdx dko mice [3] = experiment: Quantitative real time PCR of fibronectin in hearts of Utrn/mdx dko mice after Nox4 inhibitor treatment; settings: 8 weeks after treatment, 60 mg/kg/day
Source text: as §1, with “Male” for “Nox4 inhibitor GKT 137831 was purchased from MilliporeSigma and dissolved in corn oil. Male”

## CN(C)c1cccc(-c2c3c(=O)n(-c4ccccc4Cl)[nH]c3cc(=O)n2C)c1 [GKT137831]
CIP-KO/mdx dko mice; CIP-KO:mdx mice, 60 mg/kg/day daily, both younger (start 3 months old) and older (start 5 months old) mice
  left ventricle dilation (LVID), echocardiography: reduced the left ventricle dilation (LVID)
CIP-KO/mdx dko mice; CIP-KO:mdx mice, 60 mg/kg/day daily, both younger (start 3 months old) and older (start 5 months old) mice, 60 mg/kg/day
  cardiac function (Ejection Fraction, EF), echocardiography: preserved cardiac function; also recorded: improves cardiac function
CIP-KO/mdx dko mice; mdx/CIP-KO mice as worded in the summary sentence, 60 mg/kg/day daily
  cardiac fibrosis: reduces cardiac fibrosis
CIP-KO/mdx dko mice; mdx/CIP-KO mice, 60 mg/kg/day daily
  dystrophic cardiomyopathy: potently ameliorated dystrophic cardiomyopathy
CIP-KO/mdx dko mice; mdx/CIP-KO mice, 60 mg/kg/day daily oral gavage, 60 mg/kg/day
  development of heart failure: preventing the development of heart failure; also recorded: potently prevents the development of heart failure
Utrn/mdx dko mice [1]
  cardiac function (Ejection Fraction, EF; Fractional Shortening, FS %), echocardiography: preserved cardiac function
  left ventricle dilation (LVID), echocardiography: reduced the left ventricle dilation (LVID)
Utrn/mdx dko mice [2]
  formation of cardiac fibrosis and scars, Fast green/Sirius red staining: decreased the formation of cardiac fibrosis and the formation of scars
  size of the left ventricle dimension, histological analysis: reduced the size of the left ventricle dimension
Utrn/mdx dko mice [3]
  fibronectin expression in the hearts, qPCR: reduced fibronectin expression
